Measurements taken from ChEMBL document CHEMBL1201862, “PubChem BioAssay data set” (2004).
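Assay format: 96-well plates, 48-hour exposure. GI50 marks 50% less growth.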 Active and inactive are the calls of the source. Rule as the data show it: active = GI50 up to about 1.1 µM and inactive = higher.

How the values were obtained:
Assay in all cases: DTP human tumour cell line panel, 48 h
SR = tested on: SR
SN12C = tested on: SN12C
NCI-H226 = tested on: NCI-H226
CAKI-1 = tested on: CAKI-1
HOP-62 = tested on: HOP-62
SF-539 = tested on: SF-539
SF-268 = tested on: SF-268
HCC 2998 = tested on: HCC 2998
OVCAR-4 = tested on: OVCAR-4
NCI-H23 = tested on: NCI-H23
HCT-15 = tested on: HCT-15
HCT-116 = tested on: HCT-116
KM12 = tested on: KM12
HOP-92 = tested on: HOP-92
COLO 205 = tested on: COLO 205
MDA-N = tested on: MDA-N
MDA-MB-435 = tested on: MDA-MB-435
MCF7 = tested on: MCF7
SNB-75 = tested on: SNB-75
UACC-257 = tested on: UACC-257

Row | Structure (SMILES) | GI50 (SR) | GI50 (SN12C) | GI50 (NCI-H226) | GI50 (CAKI-1) | GI50 (HOP-62) | GI50 (SF-539) | GI50 (SF-268) | GI50 (HCC 2998) | GI50 (OVCAR-4) | GI50 (NCI-H23) | GI50 (HCT-15) [µM] | GI50 (HCT-116) | GI50 (KM12) | GI50 (HOP-92) | GI50 (COLO 205) | GI50 (MDA-N) | GI50 (MDA-MB-435) | GI50 (MCF7) | GI50 (SNB-75) | GI50 (UACC-257)
1 | CCCOC(=O)CCC(NC(=O)c1ccc(Nc2nc3ccccc3nc2-c2cccs2)cc1)C(=O)OCCC (centres undefined) | 61.9 µM (inactive) | > 100 µM (inactive) | > 100 µM (inactive) | > 100 µM (inactive) | > 100 µM (inactive) | > 100 µM (inactive) | > 100 µM (inactive) | 95.5 µM (inactive) | > 100 µM (inactive) | > 100 µM (inactive) | > 100 | > 100 µM (inactive) | > 100 µM (inactive) | 29.2 µM (inactive) | > 100 µM (inactive) |  |  |  |  | 
2 | COc1ccc(NC2=NCCO2)c2ccccc12 | > 10 µM (inactive) | > 10 µM (inactive) | 3.03 µM (inactive) | > 10 µM (inactive) | > 10 µM (inactive) | > 10 µM (inactive) | > 10 µM (inactive) | > 10 µM (inactive) | > 10 µM (inactive) |  | > 10 | > 10 µM (inactive) | > 10 µM (inactive) |  | > 10 µM (inactive) | > 10 µM (inactive) | > 10 µM (inactive) | > 10 µM (inactive) | > 10 µM (inactive) | 
3 | O=c1c2cc(I)ccc2nc(-c2cccs2)n1Nc1ccccc1 | 12.1 µM (inactive) | 46.8 µM (inactive) | 14.1 µM (inactive) | 11 µM (inactive) | 18.8 µM (inactive) | 33.5 µM (inactive) | 14.1 µM (inactive) | 16 µM (inactive) | 3.06 µM (inactive) | 19.9 µM (inactive) | 5.78 | 12.2 µM (inactive) | 4.14 µM (inactive) |  | 1.64 µM (inactive) |  | 0.649 µM (active) |  |  | 
4 | CC1C/C(=C\c2ccc(O)c(O)c2)C(=O)/C(=C/c2ccc(O)c(O)c2)C1 (centres undefined) | 3.82 µM (inactive) | 5.48 µM (inactive) | 2.86 µM (inactive) | 5.74 µM (inactive) | 11.3 µM (inactive) | 3.25 µM (inactive) | 6.12 µM (inactive) | 18.2 µM (inactive) | 7.16 µM (inactive) | 4.14 µM (inactive) | 8.85 | 6.67 µM (inactive) | 8.17 µM (inactive) | 6.18 µM (inactive) | 16.9 µM (inactive) | 4.69 µM (inactive) | 2.83 µM (inactive) | 3.11 µM (inactive) | 4.73 µM (inactive) | 14.5 µM (inactive)
5 | Nc1nc(=S)[nH]c2nc3c(c(-c4ccccc4)c12)CCCC3 | > 100 µM (inactive) | 67.8 µM (inactive) |  | > 100 µM (inactive) | > 100 µM (inactive) | 71.6 µM (inactive) | > 100 µM (inactive) |  | > 100 µM (inactive) | > 100 µM (inactive) | > 100 | > 100 µM (inactive) | > 100 µM (inactive) |  | > 100 µM (inactive) | > 100 µM (inactive) | > 100 µM (inactive) | > 100 µM (inactive) | 34.8 µM (inactive) | > 10 µM (inactive)
6 | Cc1cccc2c1Sc1ccccc1C2NC(=O)CN(C)C (centres undefined) | 54.7 µM (inactive) | 81.5 µM (inactive) | > 100 µM (inactive) |  | > 100 µM (inactive) | > 100 µM (inactive) | > 100 µM (inactive) | 47.6 µM (inactive) | > 100 µM (inactive) | > 100 µM (inactive) | > 100 | > 100 µM (inactive) |  |  | > 100 µM (inactive) |  |  |  | 16 µM (inactive) | 52.6 µM (inactive)
7 | C=CC(Br)(CBr)CCC(Cl)C(C)C (centres undefined) | 0.481 µM (active) | 1.73 µM (inactive) | 7.28 µM (inactive) | 2.62 µM (inactive) | 1.8 µM (inactive) | 2.31 µM (inactive) | 1.56 µM (inactive) | < 0.01 µM (active) | 1.49 µM (inactive) | 2.74 µM (inactive) |  | 3.12 µM (inactive) | 1.47 µM (inactive) | 2.04 µM (inactive) | 3.38 µM (inactive) | 1.45 µM (inactive) | 1.82 µM (inactive) | 1.39 µM (inactive) | 1.49 µM (inactive) | 2.25 µM (inactive)
8 | O=Cc1c(Br)[nH]c2ccccc12 |  | > 100 µM (inactive) | > 58.3 µM (inactive) |  | > 100 µM (inactive) | > 100 µM (inactive) | > 100 µM (inactive) | > 100 µM (inactive) | 56.8 µM (inactive) | > 100 µM (inactive) | > 100 | 84.7 µM (inactive) | > 100 µM (inactive) | 29.6 µM (inactive) | 97.9 µM (inactive) |  |  | 47 µM (inactive) | 28.8 µM (inactive) | 26.9 µM (inactive)
9 | CN(C)C(=S)SCc1ccccc1 |  | > 100 µM (inactive) | 54.2 µM (inactive) | > 100 µM (inactive) | > 100 µM (inactive) | > 100 µM (inactive) | > 100 µM (inactive) |  |  | > 100 µM (inactive) | > 100 | 83.9 µM (inactive) | > 100 µM (inactive) | 88.3 µM (inactive) | > 100 µM (inactive) | > 100 µM (inactive) | > 100 µM (inactive) | > 100 µM (inactive) | 2.41 µM (inactive) | 79.8 µM (inactive)
10 | O=C(NCCCNC(=O)c1ccc2cc(O)c(O)cc2c1)c1ccc2cc(O)c(O)cc2c1 | 25.3 µM (inactive) |  | 18.4 µM (inactive) | > 100 µM (inactive) | 25.1 µM (inactive) | 16.5 µM (inactive) | 28.8 µM (inactive) | 18.6 µM (inactive) | 16.7 µM (inactive) | 22.5 µM (inactive) | 19.9 | 37.4 µM (inactive) | 37.9 µM (inactive) | 14.2 µM (inactive) | 30.7 µM (inactive) | 31.7 µM (inactive) | 32.4 µM (inactive) | 30.9 µM (inactive) | 22.8 µM (inactive) | 36.4 µM (inactive)
